In patent US20200370012A1, “METHODS OF MAKING CHIMERIC ANTIGEN RECEPTOR-EXPRESSING CELLS” (Novartis AG, priority 2017, published 2020):

Assays:
CTL019 cells = experiment: Serial re-stimulation assay with irradiated K562-CD19 cells: CTL019 cells made with or without Stattic or recombinant IL-6 (cell numbers and viability); format: cell-based, human; conditions: exogenous IL-6 added to culture media during manufacturing of CTL019 cells; FIG. 9
Procedure: FIGS. 8A-8C show inhibition of the STAT3 pathway in CAR T cells. […] CAR-specific stimulations were performed in the presence or absence of 5 μM Stattic, a small molecule inhibitor of STAT3 activation. […] CAR T cells from this representative subject were then serially re-stimulated with K562 cells engineered to express CD19 on days 0, 7 and 12 of the culture, as indicated by the arrows.
CTL019 cells from this representative subject were then serially re-stimulated with K562 cells engineered to express CD19 or mesothelin (negative control) on days 0, 7, and 12 of the culture, as indicted by the arrows.
CTL019 cells from CLL patient infusion products were thawed and stimulated with anti-idiotypic antibody-coated beads or mock beads. For some experiments, cells were stimulated for 10 minutes with recombinant human IL-6 (Miltenyi Biotec.) at a final concentration of 10 ng/mL. In cell subset evaluation experiments, populations of interest were stained for surface markers and sorted on a FACSAria II cell sorter (BD Biosciences) prior to acute stimulation with IL-6. […] The ability of Stattic to inhibit STAT3 signaling was assessed by Phosflow staining as described above. […] Absolute cell numbers and viability were simultaneously measured during the course of CAR T cell expansion using the Luna automated cell counter (Logos Biosystems).

STAT3 (pY705) = target: T1, STAT3 (pY705) (Homo sapiens, UniProt P40763); experiment: Measurement of pSTAT3 by Phosflow intracellular staining; format: cell-based
T1 construct: CTL019 cells from CLL patient infusion products were thawed and stimulated with anti-idiotypic antibody-coated beads or mock beads; endogenous in cells; host or cells: CTL019 (anti-CD19 4-1BB/CD3zeta CAR) T cells made from autologous T cells of CLL patients; in some experiments FACS-sorted CD8+ T cell subsets
T1 sequence (P40763 whole entry, the tested form may be a part): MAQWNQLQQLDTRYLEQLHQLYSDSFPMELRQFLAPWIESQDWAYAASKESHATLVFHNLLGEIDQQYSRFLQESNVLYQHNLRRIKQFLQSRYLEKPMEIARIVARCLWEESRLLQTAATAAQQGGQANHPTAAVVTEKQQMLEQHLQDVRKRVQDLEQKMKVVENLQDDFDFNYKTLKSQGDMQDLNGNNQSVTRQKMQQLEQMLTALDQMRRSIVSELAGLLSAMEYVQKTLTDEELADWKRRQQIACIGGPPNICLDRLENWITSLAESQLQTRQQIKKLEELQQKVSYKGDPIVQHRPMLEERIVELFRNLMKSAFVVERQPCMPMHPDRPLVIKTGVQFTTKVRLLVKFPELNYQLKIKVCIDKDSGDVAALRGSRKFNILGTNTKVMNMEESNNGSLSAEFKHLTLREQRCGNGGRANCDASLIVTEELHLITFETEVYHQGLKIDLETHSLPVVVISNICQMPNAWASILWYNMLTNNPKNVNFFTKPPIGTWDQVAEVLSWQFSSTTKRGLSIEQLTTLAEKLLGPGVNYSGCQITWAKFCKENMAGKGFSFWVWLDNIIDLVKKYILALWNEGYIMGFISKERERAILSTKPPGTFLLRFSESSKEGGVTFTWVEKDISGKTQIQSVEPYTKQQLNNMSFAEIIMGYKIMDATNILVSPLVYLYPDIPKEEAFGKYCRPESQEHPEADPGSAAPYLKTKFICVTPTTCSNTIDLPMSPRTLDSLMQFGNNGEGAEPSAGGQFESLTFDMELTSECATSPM
Procedure: FIGS. 7A-7D show IL-6/STAT3 pathway enrichment in CAR T cells. […] Graphs show mean with s.e.m. […] Bars represent the mean and s.e.m. […] Pooled data from patients with highly functional (CR, n=3; PRTD, n=2) versus poorly functional (PR, n=3; NR, n=11) CAR T cells is shown in the box plots (right panel). Whiskers represent min. to max.; boxes represent 25-75 percentiles; the middle line indicates the median. The change in fluorescence intensity (MFI) was calculated by subtracting the […].
FIGS. 11A-11B show levels of pSTAT3 in CD27+ PD-1− CD8 T cells in response to IL-6. […] Summary of IL-6-induced pSTAT3 levels in CD8+ T cell subsets defined by CD27 and PD-1 expression from n=4 different subjects is shown in the right panel. The change in mean fluorescence intensity (AMFI) was determined by subtracting the […].
CTL019 cells from CLL patient infusion products were thawed and stimulated with anti-idiotypic antibody-coated beads or mock beads. […] The ability of Stattic to inhibit STAT3 signaling was assessed by Phosflow staining as described above. […] Absolute cell numbers and viability were simultaneously measured during the course of CAR T cell expansion using the Luna automated cell counter (Logos Biosystems).

Anti-CD19BBζ CAR T cells = experiment: Metabolic modulation of CAR T cells: differentiation phenotype by flow cytometry after 9 days of culture with or without 2-DG; format: cell-based, human; conditions: FIG. 4 and FIG. 5
Procedure: The following T-cell subsets are shown: naïve-like (CCR7+CD45RO−); central memory (CCR7+CD45RO+); effector memory (CCR7−CD45RO+); and effector (CCR7−CD45RO−). Anti-CD19BBζ CAR T cells were generated as in the presence or absence of the glycolysis inhibitor 2-deoxyglucose (2-DG; Sigma-Aldrich). Following 9 days of culture, the differentiation phenotype of these cells was determined by flow cytometry. CAR+T-cells were sorted on the FACSAria II cell sorter (BD Biosciences) and combined 1:1 with irradiated K562 cells engineered to express CD19 (K562-CD19). CTL019cells were re-stimulated ×3 with K562-CD19 targets. During the proliferation assay, absolute cell counts were obtained using the Luna automated cell counter (Logos Biosystems).

Molecule | absolute numbers of CAR T cells following repeated stimulation with CD19-expressing tumor targets (CTL019 cells) | expansion capacity following repeated stimulation with CD19-expressing tumor targets (CTL019 cells) | pSTAT3 activity (STAT3 (pY705); exogenous IL-6 added to culture media during manufacturing of CTL019 cells) | pSTAT3 in response to IL-6 stimulation (STAT3 (pY705); sorted CD27+PD-1− CD8+ subset, recombinant IL-6 10 ng/ml, FIG. 11A) | effector differentiation (Anti-CD19BBζ CAR T cells; CAR T cells cultured 9 days in presence vs absence of 2-DG) | frequencies of CAR T cells with a central memory phenotype (Anti-CD19BBζ CAR T cells; CCR7+CD45RO+, cultured 9 days in presence vs absence of 2-DG)
IL-6: recombinant human IL-6 (Miltenyi Biotec.), a Stat3 activator | elevated | elevated | Increasing | upregulates |  | 
OC[C@H]1O[C@H](O)C[C@@H](O)[C@@H]1O [2-DG, (4R,5S,6R)-6-(hydroxymethyl)oxane-2,4,5-triol] |  |  |  |  | decreased | increased
